According to ChEMBL document CHEMBL1201862, “PubChem BioAssay data set” (2004):
Calls of active or inactive are those of the source.

What was measured:
Assay type in all cases: functional
[1] = Counterscreen for IDE inhibitors: Luminescence-based cell-based high throughput dose response assay to identify compounds that are cytotoxic to HEK cells. [Related pubchem assays: 434962 (Primary screen (IDE inhibitors in singlicate)), 449730 (Counterscreen (Cytotoxicity in triplicate)), 435028 (Confirmation (IDE inhibitors in triplicate)) …; conditions: HEK293
Insulin-degrading enzyme = target: T1, Insulin-degrading enzyme (Homo sapiens, UniProt P14735); experiment: Dose Response: Fluorescence polarization-based cell-based high throughput dose response assay for inhibitors of insulin-degrading enzyme (IDE). [Related pubchem assays: 434962 (Primary screen (IDE inhibitors in singlicate)), 449730 (Counterscreen (Cytotoxicity in triplicate)), 435028 (Confirmation (IDE inhibitors in triplicate)), 434984 (Summary …
T1 sequence (P14735 whole entry): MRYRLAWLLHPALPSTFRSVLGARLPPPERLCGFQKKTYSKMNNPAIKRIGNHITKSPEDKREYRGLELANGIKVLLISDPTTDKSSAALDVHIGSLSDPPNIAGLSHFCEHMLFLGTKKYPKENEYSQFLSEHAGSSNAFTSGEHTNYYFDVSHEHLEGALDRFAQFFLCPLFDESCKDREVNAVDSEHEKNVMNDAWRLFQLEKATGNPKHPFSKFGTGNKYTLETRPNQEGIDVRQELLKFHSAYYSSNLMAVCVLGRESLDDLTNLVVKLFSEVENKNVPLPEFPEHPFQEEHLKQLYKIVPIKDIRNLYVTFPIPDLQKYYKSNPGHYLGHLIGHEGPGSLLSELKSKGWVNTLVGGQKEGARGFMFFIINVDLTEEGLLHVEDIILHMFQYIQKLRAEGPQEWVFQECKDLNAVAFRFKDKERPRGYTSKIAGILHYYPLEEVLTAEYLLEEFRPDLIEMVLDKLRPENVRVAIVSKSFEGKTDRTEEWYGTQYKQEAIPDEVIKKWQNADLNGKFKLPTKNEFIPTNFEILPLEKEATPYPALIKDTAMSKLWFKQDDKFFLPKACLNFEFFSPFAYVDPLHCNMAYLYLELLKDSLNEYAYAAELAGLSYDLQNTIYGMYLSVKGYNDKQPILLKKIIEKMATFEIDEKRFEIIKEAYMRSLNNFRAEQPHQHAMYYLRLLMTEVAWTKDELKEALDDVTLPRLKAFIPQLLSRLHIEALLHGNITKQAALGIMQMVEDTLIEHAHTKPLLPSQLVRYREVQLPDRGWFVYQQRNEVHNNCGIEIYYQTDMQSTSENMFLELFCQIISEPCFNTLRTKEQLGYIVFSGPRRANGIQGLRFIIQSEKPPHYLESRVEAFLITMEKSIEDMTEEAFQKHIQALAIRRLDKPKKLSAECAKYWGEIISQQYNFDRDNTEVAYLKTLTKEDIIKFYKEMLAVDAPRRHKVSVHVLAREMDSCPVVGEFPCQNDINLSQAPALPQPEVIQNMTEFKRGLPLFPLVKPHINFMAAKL

[2] = target: T2, Rac GTPase-activating protein 1 (Homo sapiens, UniProt Q9H0H5); experiment: MgcRacGAP GTPase-activating activity inhibitors, confirmation, biochemical, ADP Hunter fluorescence, primary and confirmatory (AID 624330)
T2 sequence (Q9H0H5 whole entry): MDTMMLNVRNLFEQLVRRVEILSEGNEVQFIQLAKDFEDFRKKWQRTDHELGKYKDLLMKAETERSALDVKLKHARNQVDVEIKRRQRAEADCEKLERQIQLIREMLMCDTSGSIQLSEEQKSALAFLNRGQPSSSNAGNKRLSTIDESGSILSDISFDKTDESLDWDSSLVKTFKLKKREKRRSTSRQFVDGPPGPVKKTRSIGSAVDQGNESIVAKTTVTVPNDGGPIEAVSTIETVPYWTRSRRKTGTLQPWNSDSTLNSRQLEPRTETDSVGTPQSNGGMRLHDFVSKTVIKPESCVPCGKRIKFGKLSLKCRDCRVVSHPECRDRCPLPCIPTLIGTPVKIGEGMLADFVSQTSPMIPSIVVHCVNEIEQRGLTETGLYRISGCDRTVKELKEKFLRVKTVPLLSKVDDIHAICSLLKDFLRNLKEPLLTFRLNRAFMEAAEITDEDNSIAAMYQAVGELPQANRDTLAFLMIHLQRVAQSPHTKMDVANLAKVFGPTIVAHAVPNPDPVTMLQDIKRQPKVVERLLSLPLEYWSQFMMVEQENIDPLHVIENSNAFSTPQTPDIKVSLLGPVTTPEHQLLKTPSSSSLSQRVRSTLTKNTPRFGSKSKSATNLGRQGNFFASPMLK

[3] = HeLa cell cytotoxicity, dose response, cytotoxicity control for MgcRacGAP inhibitor project (AID 624300)

COc1ccc(NC2=NC(=O)/C(=C/c3ccc(O)c(OC)c3)S2)cc1
IC50 [1]: 38.1 µM (not active) | IC50 (Insulin-degrading enzyme): > 6.22 µM (active) | IC50 [2]: 17.9 µM (active) | CC50 [3]: 95.4 µM (active)

Cc1ccc(NC(=O)CSc2nnc(CN3CCOCC3)n2C)cc1C
IC50 [1]: > 55.7 µM (not active) | IC50 (Insulin-degrading enzyme): > 55.9 µM (not active)
